Test results taken from patent publication US9730922B2, “Combined therapy for cystic fibrosis” (I.E.R.F.C. EUROPEAN INSTITUTE FOR CYSTIC FIBROSIS RESEARCH, priority 2012, dated 2017).

What was measured:
Cftr^F508del mice = test: Cftr^F508del mice, CFTR localisation and lung inflammation; type: in vivo; conditions: for signs of lung inflammation: wt littermates
ΔF508-CFTR [1] = biological target: T1, ΔF508-CFTR (Homo sapiens, UniProt P13569, DEL508-508); test: SPQ halide (iodide) efflux assay in freshly isolated brushed nasal epithelial cells; type: cell-based; set-up: Nasal epithelial cells freshly isolated by nasal brushing from 5 CF patients carrying ΔF508/ΔF508 CFTR mutations; endogenous in cells; host or cells: primary brushed nasal epithelial cells from ΔF508/ΔF508 CF patients; conditions: 18 h exposure, wash and reculture 24 h with medium; brushed nasal cells from ΔF508/ΔF508 patients
Description: We examined whether cystamine or EUK-134 (Luciani A, 2010) would induce and sustain functional ΔF508-CFTR expression in freshly isolated brushed nasal epithelial cells from ΔF508/ΔF508 patients (Table 1A). We used primary nasal epithelial cells freshly obtained from ΔF508-CFTR homozygous patients, to directly test the efficacy of these autophagy-rescuing strategies on CFTR function in human airways. We used a fluorescent-based SPQ halide efflux assays (Silvis M R, 2009) to test the response to a short pulse of forskolin (FSK) added together with either of two different CFTR potentiators, genistein or VX-532, (Van Goor F, 2010) and analyzed at least 50 brushed nasal cells for group of treatment in each patient. Freshly isolated brushed nasal epithelial cells were incubated for 18 h with either cystamine or EUK-134 or with the well known CFTR correctors Corr-4a and VRT-325.
Nasal epithelial cells freshly isolated by nasal brushing from 5 CF patients carrying ΔF508/ΔF508 CFTR mutations (see Table 1A) and 5 non-CF age- and sex-matched controls (3 F, mean age 12.5 yrs) were immersed in washing solution (PBS, DTT 2 mM, EDTA 10 mM) at 37° C. for 1 h on thermal shaker, centrifuged at 2,300×g for 20 min and washed in PBS. The isolated cells were maintained in 1 ml MEM Earl's salt L-Glutamine medium supplemented with 10% FBS and the appropriate amount of penicillin/streptomycin.^31 Brushed nasal cells were cultured for 18 h with medium, Vrx-325, Corr-4a (10 μM up to 50 μM) (kindly provided by Cystic Fibrosis Foundation, USA), cystamine (250 μM, Sigma-Aldrich), EUK-134 (50 μg ml^−1, Vinci Biochem), followed by 24 h of incubation with medium alone.
Iodide efflux. […] Changes in CFTR-mediated SPQ fluorescence were monitored at the 445 nm wavelength in response to excitation at 340 nm during perfusion at 37° C. in nitrate buffer (NaI replaced with 130 mM NaNO3) for 10 min with 20 μM forskolin plus 50 μM genistein or 20 μM forskolin plus 20 μM VRX-532 (kindly provided by Cystic Fibrosis Foundation, USA). The peak iodide efflux rate (usually 12 min after forskolin plus genistein or forskolin plus Vrx-532) of treated or untreated cells was calculated in accordance with the Stern-Volmer relationship as follows: (Fo/F)−1=KCQ
where F is the observed fluorescence, Fo is the fluorescence in the absence of a quenching anion, CQ is the concentration of the quenching anion, and K is the Stern-Volmer quench constant. The rates were calculated using SigmaPlot Version 7.1 for each mean fluorescence trace generated from the 50 cells examined per population per coverslip.

[2] = tested on: ΔF508-CFTR homozygous airways; conditions: mice in vivo and human tissues in vitro; cited from earlier work
ΔF508-CFTR [3] = biological target: T1, ΔF508-CFTR; test: CFTR function in airway epithelial cell lines after pre-treatment, washout and pulse with potentiators; type: cell-based; set-up: airway epithelial cell lines carrying ΔF508/ΔF508 CFTR mutations; endogenous in cells; conditions: for enabling the activity of genistein, VX-532 and VX-770 on ΔF508-CFTR: 48 h after withdrawal of the pre-treatment; for enabling the action of CFTR potentiators genistein or VX-532 in stimulating CFTR channel function: pre-treatment 18 h, washout 48 h, single pulse with potentiator, ΔF508/ΔF508 airway epithelial cell lines; for stimulating CFTR function (as potentiator): after pre-treatment with the mentioned molecules followed by 48 h of washout
Experimental: To provide the rationale for the use of either TG2 inhibitors or drugs that reduce ROS levels as pre-treatment before the administration of CFTR potentiators, another experimental setting was used, where airway epithelial cell lines carrying ΔF508/ΔF508 CFTR mutations were treated with cystamine or EUK-134 or where TG2 was depleted by a small interference RNA approach or where ROS were reduced by the overexpression of the human Manganese Superoxide-dismutase (Mn-SOD).
Another experimental approach was used to test the efficacy of other pharmacological agents able to damp down TG2 and/or reduce the levels of ROS. […] These pharmacological agents were tested following the experimental approach of pre-treatment (18 h), washout (48 h) and single pulse with potentiators, in presence or absence of PA-LPS stimulation after pulse with potentiators, following the procedure above described.
Moreover, the efficacy of other molecules endowed with either ROS inhibiting activity or potentiator activity was tested.

[4] = tested on: ΔF508-CFTR homozygous patients; conditions: cited from earlier work
[5] = tested on: nasal polyp biopsies from ΔF508/ΔF508 patients; test: ex vivo cultures of nasal polyp mucosal biopsies (confocal microscopy, in situ TG2 activity); type: cell-based, human
Experimental: Nasal polyp biopsies from five ΔF508/ΔF508 patients (Table 1B) were treated with cystamine for 18 h, washed and then cultured for further 36 h in the absence of cystamine.
Next, ΔF508/ΔF508 nasal polyp biopsies were pulsed for 30 min with genistein followed by 4 h incubation with PA-LPS. […] To examine whether pre-treatment with cystamine was effective in enabling the action of genistein in human airways, nasal polyp biopsies were incubated with cystamine or medium for 18 h, then washed and kept in medium alone for 24 h and finally pulsed for 30 min with genistein followed by 4 h PA-LPS.
Human samples: ex vivo cultures of nasal polyp mucosal biopsies. Nasal polyp biopsies from 5 ΔF508 homozygous patients undergoing surgical treatment for non-allergic nasal polyposis (see Table 1B) were cultured as previously described,^7,19,32 for 18 h with medium, cystamine or EUK-134, followed by 36 h of incubation with medium alone, and then pulsed for 30 min with medium or genistein followed by 4 h of PA-LPS challenge.
Human tissue sections: five-micrometer frozen human lung tissue sections were fixed in acetone for 10 min. The sections were incubated for 2 h at room temperature with the indicated antibodies (Abs). […] The primary Abs were: CFTR 1:100 (CF3, Abcam), CFTR 1:100 (H-182, Santa Cruz Biotecnology) (used on mouse tissue), phospho-Tyr 1:200 (Santa Cruz Biotecnology), p62 1:300 (Sigma). These were followed by incubation with Alexa 488 or 546 secondary antibodies (Molecular Probe, Invitrogen). Data were analyzed under fluorescence examination by a LSM510 Zeiss confocal laser-scanning unit (Carl Zeiss, Germany).
In situ detection of TG2 exzyme activity. TG2 activity in tissue samples was detected by incubating unfixed sections with biotinylated monodansylcadaverine for 1 h at 37° C. The incorporation of labeled substrate was visualized by incubation with Alexa 546-conjugated streptavidin (1:100; Molecular Probes, Invitrogen) for 30 min.

[6] = i.p. 7 days followed by 10 days of vehicle only

T1 sequence (P13569 with tags, fused parts or gaps DEL508-508): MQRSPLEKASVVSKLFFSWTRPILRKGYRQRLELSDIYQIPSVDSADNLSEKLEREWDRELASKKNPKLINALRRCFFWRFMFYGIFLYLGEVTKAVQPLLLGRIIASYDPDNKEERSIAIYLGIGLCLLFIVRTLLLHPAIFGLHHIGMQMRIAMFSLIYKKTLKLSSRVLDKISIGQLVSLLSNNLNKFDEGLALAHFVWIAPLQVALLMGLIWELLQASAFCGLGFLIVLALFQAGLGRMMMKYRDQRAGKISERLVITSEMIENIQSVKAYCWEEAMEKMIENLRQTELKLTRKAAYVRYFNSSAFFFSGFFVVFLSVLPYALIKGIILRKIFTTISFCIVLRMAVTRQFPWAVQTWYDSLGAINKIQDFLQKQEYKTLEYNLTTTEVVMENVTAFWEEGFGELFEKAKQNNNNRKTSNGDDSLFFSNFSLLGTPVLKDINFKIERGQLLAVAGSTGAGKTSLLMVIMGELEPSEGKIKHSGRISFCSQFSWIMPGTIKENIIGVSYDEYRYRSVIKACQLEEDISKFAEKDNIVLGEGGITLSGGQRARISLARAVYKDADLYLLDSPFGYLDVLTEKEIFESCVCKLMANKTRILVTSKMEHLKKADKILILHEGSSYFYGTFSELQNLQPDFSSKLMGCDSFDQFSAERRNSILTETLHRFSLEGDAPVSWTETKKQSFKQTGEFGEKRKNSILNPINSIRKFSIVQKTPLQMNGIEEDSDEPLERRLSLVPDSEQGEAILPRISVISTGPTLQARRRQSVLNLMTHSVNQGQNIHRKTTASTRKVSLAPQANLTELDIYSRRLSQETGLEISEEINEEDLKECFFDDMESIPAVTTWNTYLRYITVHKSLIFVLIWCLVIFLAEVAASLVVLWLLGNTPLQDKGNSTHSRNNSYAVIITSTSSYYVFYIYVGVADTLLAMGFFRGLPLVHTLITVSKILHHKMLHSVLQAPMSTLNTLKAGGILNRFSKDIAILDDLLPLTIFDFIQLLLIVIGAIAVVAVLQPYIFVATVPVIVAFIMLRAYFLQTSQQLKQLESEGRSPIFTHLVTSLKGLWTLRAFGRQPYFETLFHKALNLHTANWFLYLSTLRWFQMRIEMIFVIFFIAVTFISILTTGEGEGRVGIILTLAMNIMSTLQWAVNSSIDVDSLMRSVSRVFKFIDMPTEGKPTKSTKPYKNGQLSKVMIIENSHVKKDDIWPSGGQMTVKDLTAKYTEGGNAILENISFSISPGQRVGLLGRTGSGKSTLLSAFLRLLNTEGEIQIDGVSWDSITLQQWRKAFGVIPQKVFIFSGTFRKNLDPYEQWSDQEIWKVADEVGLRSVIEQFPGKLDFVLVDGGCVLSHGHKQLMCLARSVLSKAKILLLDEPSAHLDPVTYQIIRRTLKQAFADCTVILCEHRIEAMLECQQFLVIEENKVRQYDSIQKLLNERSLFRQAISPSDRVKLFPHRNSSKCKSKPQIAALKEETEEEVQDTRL

Compound: Cn1cnc(N)c2ncnc1-2 [3-MA]
- effects of cystamine (ΔF508 re-location, reduced lung inflammation) with co-treatment during the phase of withdrawal (Cftr^F508del mice; intraperitoneal treatment during the withdrawal phase): abrogated

Compound: COc1ccc(Cl)cc1Nc1nc(-c2sc(NC(=O)c3ccccc3)nc2C)cs1 [Corr-4a]
- ΔF508-CFTR response to a short pulse of forskolin plus genistein or VX-532 (SPQ halide efflux) (ΔF508-CFTR [1]): only had scarce effects

Compound: COc1cccc(C=NCCN=Cc2cccc(OC)c2[O-])c1[O-].[Cl-].[Mn+3] [EUK-134]
- inflammation in ΔF508-CFTR homozygous airways [2]: blunts inflammation
- enabling the activity of genistein, VX-532 and VX-770 on ΔF508-CFTR (ΔF508-CFTR [3]): enables the activity of the CFTR potentiators genistein and VX-532 as well as of the well known CFTR potentiator VX-770
- enabling the action of CFTR potentiators genistein or VX-532 in stimulating CFTR channel function (ΔF508-CFTR [3]): similarly effective in enabling the action of CFTR potentiators
- ΔF508-CFTR response to a short pulse of forskolin plus genistein or VX-532 (SPQ halide efflux) (ΔF508-CFTR [1]): rendered the cells capable of conserving ΔF508-CFTR response

Compound: COc1ccc(S(=O)(=O)N2CCN(C(C)c3nc(OC4CCCCC4)c4ccccc4n3)CC2)cc1 (centres unmarked) [VRT-325]
- ΔF508-CFTR response to a short pulse of forskolin plus genistein or VX-532 (SPQ halide efflux) (ΔF508-CFTR [1]): only had scarce effects

Compound: Cc1ccc(NC(=O)C2(c3ccc4c(c3)OC(F)(F)O4)CC2)nc1-c1cccc(C(=O)O)c1 [VX-809]
- lung function or CF complications [4]: no improvement
- sweat chloride [4]: modest dose-dependent reductions

Compound: CC(=O)N[C@@H](CS)C(=O)O [acetylcysteine]
- inflammation in ΔF508-CFTR homozygous airways [2]: blunts inflammation

Compound: O=c1cc(-c2ccc(O)cc2)oc2cc(O)cc(O)c12 [apigenin]
- stimulating CFTR function (as potentiator) (ΔF508-CFTR [3]): as effective as genistein in stimulating CFTR function

Compound: NCCSSCCN [cystamine]
- reduction of signs of mucosal inflammation (TG2 activation and protein tyrosine phosphorylation) ([5]; cystamine 18 h, washed, 36 h washout): persisted after 36 h of washout
- rescue of CFTR at the epithelial surface (confocal microscopy) ([5]; cystamine 18 h, washed, 36 h without cystamine): persisted for 36 h after cystamine withdrawal
- lung inflammation (Cftr^F508del mice; daily inhalations of aerosolized 0.2 mg/mouse/day for one week): reduced lung inflammation
- re-location of ΔF508 protein at the respiratory epithelial surface (Cftr^F508del mice; [6]): persisted for 10 days after cystamine withdrawal
- reducing lung inflammation (Cftr^F508del mice; [6]): persisted for 10 days after cystamine withdrawal
- signs of lung inflammation (Cftr^F508del mice): not effective
- inflammation in ΔF508-CFTR homozygous airways [2]: blunts inflammation
- enabling the activity of genistein, VX-532 and VX-770 on ΔF508-CFTR (ΔF508-CFTR [3]): enables the activity of the CFTR potentiators genistein and VX-532 as well as of the well known CFTR potentiator VX-770
- enabling the action of CFTR potentiators genistein or VX-532 in stimulating CFTR channel function (ΔF508-CFTR [3]): similarly effective in enabling the action of CFTR potentiators
- ΔF508-CFTR response to a short pulse of forskolin plus genistein or VX-532 (SPQ halide efflux) (ΔF508-CFTR [1]): rendered the cells capable of conserving ΔF508-CFTR response

Compound: Oc1cc(O)c2c(c1)O[C@H](c1cc(O)c(O)c(O)c1)[C@H](O)C2 [epigallocatechin]
- stimulating CFTR function (as potentiator) (ΔF508-CFTR [3]): as effective as genistein in stimulating CFTR function

Compound: O=c1c(-c2ccc(O)cc2)coc2cc(O)cc(O)c12 [genistein]
- epithelial protein phosphorylation ([5]; 30 min pulse followed by 4 h PA-LPS, no pre-treatment): not effective in reducing epithelial protein phosphorylation
- signs of lung inflammation after genistein pulse and aerosolized PA-LPS (Cftr^F508del mice; mice not pretreated with cystamine): had no effect on its own
- signs of lung inflammation after genistein pulse and aerosolized PA-LPS (Cftr^F508del mice; mice pre-treated with aerosolized cystamine one week, one week without treatment): significantly reduced the signs of lung inflammation
- signs of lung inflammation (Cftr^F508del mice): not effective

Compound: O=c1c(O)c(-c2ccc(O)c(O)c2)oc2cc(O)cc(O)c12 [quercetin]
- stimulating CFTR function (as potentiator) (ΔF508-CFTR [3]): as effective as genistein in stimulating CFTR function

Compound: COc1cc(C2Oc3cc([C@H]4Oc5cc(O)cc(O)c5C(=O)[C@@H]4O)ccc3OC2CO)ccc1O (some centres unmarked) [silybin]
- stimulating CFTR function (as potentiator) (ΔF508-CFTR [3]): as effective as genistein in stimulating CFTR function

Compound: catechin
- stimulating CFTR function (as potentiator) (ΔF508-CFTR [3]): as effective as genistein in stimulating CFTR function
